Source: ChEMBL document CHEMBL1156950, “Synthesis and biological evaluation of 4-anilinoquinolines as potent inhibitors of epidermal growth factor receptor” (J Med Chem, 2010)

Legend:
[1] = target: Interleukin-1 receptor-associated kinase 4 (Homo sapiens) (UniProt Q9NWZ3); assay: Inhibition of IRAK4 at 10 uM assessed as residual activity by [33P]ATP radioactive filter binding assay relative to control
[2] = target: MAP kinase-activated protein kinase 3 (Homo sapiens) (UniProt Q16644); assay: Inhibition of MAPKAPK-3 at 10 uM assessed as residual activity by [33P]ATP radioactive filter binding assay relative to control
[3] = target: Tyrosine-protein kinase CSK (Homo sapiens) (UniProt P41240); assay: Inhibition of CSK at 10 uM assessed as residual activity by [33P]ATP radioactive filter binding assay relative to control
[4] = target: Serine/threonine-protein kinase pim-2 (Homo sapiens) (UniProt Q9P1W9); assay: Inhibition of PIM2 at 10 uM assessed as residual activity by [33P]ATP radioactive filter binding assay relative to control
Chain of Serine/threonine-protein kinase pim-2 (Homo sapiens) (Q9P1W9 whole entry, looked up): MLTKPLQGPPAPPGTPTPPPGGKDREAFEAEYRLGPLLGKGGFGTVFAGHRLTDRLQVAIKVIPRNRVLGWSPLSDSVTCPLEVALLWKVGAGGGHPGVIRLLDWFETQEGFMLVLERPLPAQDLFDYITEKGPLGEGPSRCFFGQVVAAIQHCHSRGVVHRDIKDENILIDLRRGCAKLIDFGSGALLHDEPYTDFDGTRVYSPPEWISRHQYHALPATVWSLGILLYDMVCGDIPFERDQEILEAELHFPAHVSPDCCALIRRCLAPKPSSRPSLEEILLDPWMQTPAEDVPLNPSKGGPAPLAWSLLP

[5] = target: Mitogen-activated protein kinase 13 (Homo sapiens) (UniProt O15264); assay: Inhibition of p38delta at 10 uM assessed as residual activity by [33P]ATP radioactive filter binding assay relative to control
[6] = target: Serine/threonine-protein kinase MARK2 (Homo sapiens) (UniProt Q7KZI7); assay: Inhibition of MARK2 at 10 uM assessed as residual activity by [33P]ATP radioactive filter binding assay relative to control
[7] = target: Serine/threonine-protein kinase PAK 2 (Homo sapiens) (UniProt Q13177); assay: Inhibition of PAK2 at 10 uM assessed as residual activity by [33P]ATP radioactive filter binding assay relative to control
[8] = target: Serine/threonine-protein kinase 3 (Homo sapiens) (UniProt Q13188); assay: Inhibition of MST2 at 10 uM assessed as residual activity by [33P]ATP radioactive filter binding assay relative to control
Chain of Serine/threonine-protein kinase 3 (Homo sapiens) (Q13188 whole entry): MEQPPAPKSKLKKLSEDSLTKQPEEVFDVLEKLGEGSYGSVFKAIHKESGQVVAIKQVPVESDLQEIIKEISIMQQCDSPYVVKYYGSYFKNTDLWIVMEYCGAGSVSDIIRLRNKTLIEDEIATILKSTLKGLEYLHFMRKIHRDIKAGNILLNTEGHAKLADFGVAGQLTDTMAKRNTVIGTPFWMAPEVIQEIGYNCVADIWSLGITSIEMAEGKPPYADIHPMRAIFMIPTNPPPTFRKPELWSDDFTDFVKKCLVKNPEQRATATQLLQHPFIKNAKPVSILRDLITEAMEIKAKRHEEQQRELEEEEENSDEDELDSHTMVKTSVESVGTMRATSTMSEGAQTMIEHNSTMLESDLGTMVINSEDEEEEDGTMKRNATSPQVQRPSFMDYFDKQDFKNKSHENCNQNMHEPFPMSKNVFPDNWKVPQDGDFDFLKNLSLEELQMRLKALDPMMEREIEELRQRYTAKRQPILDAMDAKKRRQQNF

[9] = target: Mitogen-activated protein kinase 3 (Homo sapiens) (UniProt P27361); assay: Inhibition of ERK1 at 10 uM assessed as residual activity by [33P]ATP radioactive filter binding assay relative to control
Chain of Mitogen-activated protein kinase 3 (Homo sapiens) (P27361 whole entry): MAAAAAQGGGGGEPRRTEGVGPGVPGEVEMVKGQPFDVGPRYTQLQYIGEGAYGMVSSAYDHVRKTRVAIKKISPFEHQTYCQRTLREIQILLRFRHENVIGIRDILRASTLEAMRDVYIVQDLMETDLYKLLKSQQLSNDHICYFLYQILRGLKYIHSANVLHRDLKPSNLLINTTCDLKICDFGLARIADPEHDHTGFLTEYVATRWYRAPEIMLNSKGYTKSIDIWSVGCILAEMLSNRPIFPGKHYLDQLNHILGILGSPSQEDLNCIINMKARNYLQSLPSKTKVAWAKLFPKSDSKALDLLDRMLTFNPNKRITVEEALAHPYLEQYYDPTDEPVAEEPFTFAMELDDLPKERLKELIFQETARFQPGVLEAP

[10] = target: Serine/threonine-protein kinase PAK 6 (Homo sapiens) (UniProt Q9NQU5); assay: Inhibition of PAK6 at 10 uM assessed as residual activity by [33P]ATP radioactive filter binding assay relative to control
[11] = target: Dual specificity tyrosine-phosphorylation-regulated kinase 1A (Homo sapiens) (UniProt Q13627); assay: Inhibition of DYRK1A at 10 uM assessed as residual activity by [33P]ATP radioactive filter binding assay relative to control
[12] = target: Serine/threonine-protein kinase Nek6 (Homo sapiens) (UniProt Q9HC98); assay: Inhibition of NEK6 at 10 uM assessed as residual activity by [33P]ATP radioactive filter binding assay relative to control
Chain of Serine/threonine-protein kinase Nek6 (Homo sapiens) (Q9HC98 whole entry): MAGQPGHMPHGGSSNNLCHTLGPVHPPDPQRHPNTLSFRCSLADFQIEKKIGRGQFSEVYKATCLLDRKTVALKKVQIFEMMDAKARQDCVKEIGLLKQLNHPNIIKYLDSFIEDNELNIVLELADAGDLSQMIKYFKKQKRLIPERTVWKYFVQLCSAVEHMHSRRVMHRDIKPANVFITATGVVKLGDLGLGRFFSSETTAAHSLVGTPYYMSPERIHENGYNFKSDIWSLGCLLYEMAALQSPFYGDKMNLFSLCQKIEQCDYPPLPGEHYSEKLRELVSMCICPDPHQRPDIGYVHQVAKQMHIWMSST

[13] = target: Mitogen-activated protein kinase 15 (Homo sapiens) (UniProt Q8TD08); assay: Inhibition of ERK8 at 10 uM assessed as residual activity by [33P]ATP radioactive filter binding assay relative to control
[14] = target: Dual specificity protein kinase TTK (Homo sapiens) (UniProt P33981); assay: Inhibition of TTK at 10 uM assessed as residual activity by [33P]ATP radioactive filter binding assay relative to control
[15] = Inhibition of PKA at 10 uM assessed as residual activity by [33P]ATP radioactive filter binding assay relative to control
[16] = target: Mitogen-activated protein kinase 1 (Homo sapiens) (UniProt P28482); assay: Inhibition of ERK2 at 10 uM assessed as residual activity by [33P]ATP radioactive filter binding assay relative to control
[17] = target: Homeodomain-interacting protein kinase 1 (Homo sapiens) (UniProt Q86Z02); assay: Inhibition of HIPK1 at 10 uM assessed as residual activity by [33P]ATP radioactive filter binding assay relative to control
[18] = target: Homeodomain-interacting protein kinase 2 (Homo sapiens) (UniProt Q9H2X6); assay: Inhibition of HIPK2 at 10 uM assessed as residual activity by [33P]ATP radioactive filter binding assay relative to control
Chain of Homeodomain-interacting protein kinase 2 (Homo sapiens) (Q9H2X6 whole entry, looked up): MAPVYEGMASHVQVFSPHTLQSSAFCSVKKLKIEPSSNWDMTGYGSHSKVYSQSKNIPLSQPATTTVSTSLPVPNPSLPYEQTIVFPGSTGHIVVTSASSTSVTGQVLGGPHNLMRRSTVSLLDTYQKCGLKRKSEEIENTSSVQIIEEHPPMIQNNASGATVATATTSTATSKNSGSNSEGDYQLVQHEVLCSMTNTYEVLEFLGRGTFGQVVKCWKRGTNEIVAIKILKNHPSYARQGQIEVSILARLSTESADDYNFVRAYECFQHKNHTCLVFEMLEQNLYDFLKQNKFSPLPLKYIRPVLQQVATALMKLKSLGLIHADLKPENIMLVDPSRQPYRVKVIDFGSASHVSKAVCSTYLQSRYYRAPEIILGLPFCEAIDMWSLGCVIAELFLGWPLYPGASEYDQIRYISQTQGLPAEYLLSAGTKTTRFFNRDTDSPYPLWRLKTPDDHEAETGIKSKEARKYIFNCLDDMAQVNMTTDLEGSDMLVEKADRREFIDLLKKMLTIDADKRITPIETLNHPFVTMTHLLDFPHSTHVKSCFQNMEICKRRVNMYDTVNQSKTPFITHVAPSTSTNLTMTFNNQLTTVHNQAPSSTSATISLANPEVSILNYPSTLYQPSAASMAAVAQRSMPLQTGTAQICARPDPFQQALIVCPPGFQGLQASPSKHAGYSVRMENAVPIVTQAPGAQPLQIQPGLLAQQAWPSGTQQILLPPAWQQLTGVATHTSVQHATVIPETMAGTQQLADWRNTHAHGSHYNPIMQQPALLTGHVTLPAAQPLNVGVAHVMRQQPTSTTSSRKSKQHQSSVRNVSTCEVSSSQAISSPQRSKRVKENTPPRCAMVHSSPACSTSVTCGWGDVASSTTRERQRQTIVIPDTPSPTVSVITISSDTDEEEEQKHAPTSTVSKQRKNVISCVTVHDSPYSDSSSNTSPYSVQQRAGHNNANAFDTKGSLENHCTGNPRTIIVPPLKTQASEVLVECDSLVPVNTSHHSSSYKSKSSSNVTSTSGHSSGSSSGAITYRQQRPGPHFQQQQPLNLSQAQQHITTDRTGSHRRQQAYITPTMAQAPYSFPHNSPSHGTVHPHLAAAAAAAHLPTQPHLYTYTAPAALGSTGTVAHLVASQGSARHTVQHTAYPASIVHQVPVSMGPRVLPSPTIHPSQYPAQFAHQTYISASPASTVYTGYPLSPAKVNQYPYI

[19] = target: Serine/threonine-protein kinase PLK1 (Homo sapiens) (UniProt P53350); assay: Inhibition of PLK1 at 10 uM assessed as residual activity by [33P]ATP radioactive filter binding assay relative to control
[20] = target: Tyrosine-protein kinase Yes (Homo sapiens) (UniProt P07947); assay: Inhibition of YES1 at 10 uM assessed as residual activity by [33P]ATP radioactive filter binding assay relative to control
[21] = target: Misshapen-like kinase 1 (Homo sapiens) (UniProt Q8N4C8); assay: Inhibition of MINK1 at 10 uM assessed as residual activity by [33P]ATP radioactive filter binding assay relative to control
[22] = target: MAP kinase-interacting serine/threonine-protein kinase 2 (Homo sapiens) (UniProt Q9HBH9); assay: Inhibition of MNK2 at 10 uM assessed as residual activity by [33P]ATP radioactive filter binding assay relative to control
[23] = target: Serine/threonine-protein kinase Chk2 (Homo sapiens) (UniProt O96017); assay: Inhibition of CHK2 at 10 uM assessed as residual activity by [33P]ATP radioactive filter binding assay relative to control
Chain of Serine/threonine-protein kinase Chk2 (Homo sapiens) (O96017 whole entry): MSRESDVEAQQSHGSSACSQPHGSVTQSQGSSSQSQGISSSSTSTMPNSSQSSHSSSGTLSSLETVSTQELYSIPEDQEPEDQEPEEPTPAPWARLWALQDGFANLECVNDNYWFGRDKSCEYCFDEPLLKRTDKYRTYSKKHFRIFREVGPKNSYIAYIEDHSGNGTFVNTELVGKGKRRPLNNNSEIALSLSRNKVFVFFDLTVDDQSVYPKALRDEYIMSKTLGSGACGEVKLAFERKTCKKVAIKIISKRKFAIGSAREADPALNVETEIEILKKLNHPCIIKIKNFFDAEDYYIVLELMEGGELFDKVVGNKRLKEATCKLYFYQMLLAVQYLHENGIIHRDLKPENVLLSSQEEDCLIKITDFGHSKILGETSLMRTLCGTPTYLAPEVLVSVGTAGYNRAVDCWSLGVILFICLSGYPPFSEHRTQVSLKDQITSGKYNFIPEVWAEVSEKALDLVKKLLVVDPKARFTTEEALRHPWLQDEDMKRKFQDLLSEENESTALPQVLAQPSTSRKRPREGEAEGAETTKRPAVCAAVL

[24] = target: Aurora kinase B (Homo sapiens) (UniProt Q96GD4); assay: Inhibition of Aurora B at 10 uM assessed as residual activity by [33P]ATP radioactive filter binding assay relative to control
Chain of Aurora kinase B (Homo sapiens) (Q96GD4 whole entry): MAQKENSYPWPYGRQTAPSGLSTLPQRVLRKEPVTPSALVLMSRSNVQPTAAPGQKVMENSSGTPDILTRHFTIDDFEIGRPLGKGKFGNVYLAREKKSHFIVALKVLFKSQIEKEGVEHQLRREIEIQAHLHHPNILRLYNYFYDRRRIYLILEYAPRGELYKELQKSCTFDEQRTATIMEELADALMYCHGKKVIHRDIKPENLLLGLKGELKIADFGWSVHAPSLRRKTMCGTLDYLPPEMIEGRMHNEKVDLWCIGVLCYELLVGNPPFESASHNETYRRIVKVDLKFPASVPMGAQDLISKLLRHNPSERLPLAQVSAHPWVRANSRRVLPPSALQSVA

[25] = target: Serine/threonine-protein kinase BRSK2 (Homo sapiens) (UniProt Q8IWQ3); assay: Inhibition of BRSK2 at 10 uM assessed as residual activity by [33P]ATP radioactive filter binding assay relative to control
Chain of Serine/threonine-protein kinase BRSK2 (Homo sapiens) (Q8IWQ3 whole entry): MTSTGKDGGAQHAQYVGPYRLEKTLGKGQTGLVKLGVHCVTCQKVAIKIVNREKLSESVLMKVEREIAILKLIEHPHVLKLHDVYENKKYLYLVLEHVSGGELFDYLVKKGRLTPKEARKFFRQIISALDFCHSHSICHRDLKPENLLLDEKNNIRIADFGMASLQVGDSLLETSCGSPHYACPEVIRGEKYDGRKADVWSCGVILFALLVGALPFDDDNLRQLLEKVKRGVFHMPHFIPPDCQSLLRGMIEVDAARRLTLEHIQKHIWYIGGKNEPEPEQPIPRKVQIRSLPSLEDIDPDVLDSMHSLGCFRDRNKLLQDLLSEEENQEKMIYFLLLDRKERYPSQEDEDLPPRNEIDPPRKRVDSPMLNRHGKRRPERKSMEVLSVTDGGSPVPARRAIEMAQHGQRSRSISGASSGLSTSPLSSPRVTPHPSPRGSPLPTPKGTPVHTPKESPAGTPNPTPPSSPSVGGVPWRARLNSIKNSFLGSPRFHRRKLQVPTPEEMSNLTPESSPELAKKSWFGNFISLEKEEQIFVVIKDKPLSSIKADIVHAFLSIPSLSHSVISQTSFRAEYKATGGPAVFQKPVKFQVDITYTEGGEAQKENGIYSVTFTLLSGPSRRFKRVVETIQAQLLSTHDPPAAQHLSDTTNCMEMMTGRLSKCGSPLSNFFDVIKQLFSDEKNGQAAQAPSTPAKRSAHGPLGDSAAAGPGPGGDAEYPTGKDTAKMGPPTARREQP

[26] = Inhibition of VEGFR at 10 uM assessed as residual activity by [33P]ATP radioactive filter binding assay relative to control
[27] = target: Serine/threonine-protein kinase pim-1 (Homo sapiens) (UniProt P11309); assay: Inhibition of PIM1 at 10 uM assessed as residual activity by [33P]ATP radioactive filter binding assay relative to control
[28] = target: Dual specificity tyrosine-phosphorylation-regulated kinase 2 (Homo sapiens) (UniProt Q92630); assay: Inhibition of DYRK2 at 10 uM assessed as residual activity by [33P]ATP radioactive filter binding assay relative to control
Chain of Dual specificity tyrosine-phosphorylation-regulated kinase 2 (Homo sapiens) (Q92630 whole entry): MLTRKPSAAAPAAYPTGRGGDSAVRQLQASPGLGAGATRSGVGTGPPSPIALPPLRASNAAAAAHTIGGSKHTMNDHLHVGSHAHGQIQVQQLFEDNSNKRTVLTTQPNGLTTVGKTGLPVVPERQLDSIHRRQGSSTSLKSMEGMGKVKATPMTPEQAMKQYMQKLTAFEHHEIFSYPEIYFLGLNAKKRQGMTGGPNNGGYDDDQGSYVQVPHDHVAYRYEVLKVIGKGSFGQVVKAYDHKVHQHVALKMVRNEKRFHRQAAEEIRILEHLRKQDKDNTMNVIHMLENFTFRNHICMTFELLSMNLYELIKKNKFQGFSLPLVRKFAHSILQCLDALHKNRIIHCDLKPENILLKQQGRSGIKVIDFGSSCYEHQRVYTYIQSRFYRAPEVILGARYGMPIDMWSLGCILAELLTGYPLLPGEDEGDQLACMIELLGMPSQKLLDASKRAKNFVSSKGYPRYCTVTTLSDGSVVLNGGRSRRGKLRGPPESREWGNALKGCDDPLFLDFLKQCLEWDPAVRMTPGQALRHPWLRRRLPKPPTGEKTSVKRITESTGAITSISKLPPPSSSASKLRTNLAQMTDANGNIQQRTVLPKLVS

[29] = target: Tyrosine-protein kinase SYK (Homo sapiens) (UniProt P43405); assay: Inhibition of SYK at 10 uM assessed as residual activity by [33P]ATP radioactive filter binding assay relative to control
[30] = target: RAC-beta serine/threonine-protein kinase (Homo sapiens) (UniProt P31751); assay: Inhibition of PKBbeta at 10 uM assessed as residual activity by [33P]ATP radioactive filter binding assay relative to control
cells [31] = settings: Mus musculus, BaF3, 96 h
Description: Growth inhibition of mouse BA/F3 cells expressing EGFR Del3 mutant after 96 hrs by cell titer-glo assay

cells [32] = settings: Mus musculus, BaF3, 96 h; remark: listed apart in the source
Description: Growth inhibition of mouse BA/F3 cells expressing EGFR Del5 mutant after 96 hrs by cell titer-glo assay

cells [33] = settings: Mus musculus, BaF3, 96 h; remark: listed apart in the source

Activity [1] [%] | Activity [2] [%] | Activity [3] [%] | Activity [4] [%] | Activity [5] [%] | Activity [6] [%] | Activity [8] [%] | Activity [9] [%] | Activity [10] [%] | Activity [11] [%] | Activity [12] [%] | Activity [14] [%] | Activity [15] [%] | Activity [17] [%] | Activity [18] [%] | Activity [19] [%] | Activity [20] [%] | Activity [21] [%] | Activity [22] [%] | Structure (SMILES) | Activity [13] [%] | also measured
70 | 72 | 73 | 75 | 76 | 77 | 80 | 82 | 82 | 85 | 85 | 85 | 86 | 103 | 104 | 109 | 4 | 12 | 21 | CN(C)CCCC(=O)Nc1ccc2nccc(Nc3cccc(Br)c3)c2c1 | 85 | Activity [7]: 79%; Activity [16]: 88%; Activity [23]: 27%; Activity [24]: 33%; Activity [25]: 36%; Activity [26]: 36%; Activity [27]: 46%; Activity [28]: 52%; Activity [29]: 57%; Activity [30]: 61%; GI50 (cells [31]): < 500 nM; GI50 (cells [32]): < 500 nM; GI50 (cells [33]): < 500 nM
81 | 81 | 63 | 62 | 79 | 82 | 90 | 83 | 93 | 65 | 77 | 86 | 91 | 126 | 97 | 95 | 7 | 35 | 14 | CN(C)CCCC(=O)Nc1ccc2ncnc(Nc3cccc(Br)c3)c2c1 | 78 | Activity [23]: 38%; Activity [24]: 21%; Activity [25]: 29%; Activity [26]: 50%; Activity [27]: 12%; Activity [28]: 51%; Activity [29]: 67%; Activity [30]: 80%; GI50 (cells [31]): < 500 nM; GI50 (cells [32]): < 500 nM; GI50 (cells [33]): < 500 nM
